In PMC3895407 (Journal of medicinal chemistry, 2013):
Marks after values point to notes of the source that are not given here.

Columns and labels:
[1] = test system: cell viability (cellular reduction of MTT)
WEEV replicon = assay type: cell-based, western equine encephalitis virus
Fort Morgan virus (FMV) [2] = settings: 25 µM
in vitro [3] = settings: PAMPA, pH 7.4
Fort Morgan virus (FMV) [4] = assay type: cell-based
in vitro [5] = assay: in vitro
[6] = Table 3; BBB lipid mixture, pH 7.4
[7] = relative to lead compound 3
[8] = test system: western equine encephalitis virus (WEEV); settings: 25 µM
[9] = test system: western equine encephalitis virus (WEEV); settings: cited from earlier work

Molecule	Papp (in vitro [3])	CC50 (in vitro [5])	also measured
1-(1-(4-Chlorobenzyl)-1H-indole-2-carbonyl)-N-(2-methyl-2-(pyridin-4-yl)propyl)piperidine-4-carboxamide [27l]	–	–	CC50 [1]: 43.6 µM; IC50 (WEEV replicon; read-out: IC50 (inhibition of luciferase expression in WEEV replicon assay)): 19.3 ± 21 µM
CC(NC(=O)C1CCN(C(=O)c2cc3ccccc3n2Cc2ccc(Cl)cc2)CC1)c1ccncc1 (stereo not drawn) [27a, 1-(1-(4-Chlorobenzyl)-1H-indole-2-carbonyl)-N-(1-(pyridin-4-yl)ethyl)piperidine-4-carboxamide]	102 ×10⁻⁶ cm/s	–	FMV Viability (% uninfected control) (Fort Morgan virus (FMV) [2]): 68.2 ± 2.4 % uninfected control; Reduction of viral titers compared with 3 (Fort Morgan virus (FMV) [4]): approximately ten-fold more than 3; Fold improvement of activity in WEEV replicon assay (WEEV replicon): about 3 fold
C[C@@H](NC(=O)C1CCN(C(=O)c2cc3ccccc3n2Cc2ccc(Cl)cc2)CC1)c1ccncc1 [27b, (R)-1-(1-(4-Chlorobenzyl)-1H-indole-2-carbonyl)-N-(1-(pyridin-4-yl)ethyl)piperidine-4-carboxamide]	95.5 ×10⁻⁶ cm/s	–	–
CN1CCC(CNC(=O)C2CCN(C(=O)c3cc4ccccc4n3Cc3ccc(Cl)cc3)CC2)CC1 [27d, 1-(1-(4-Chlorobenzyl)-1H-indole-2-carbonyl)-N-((1-methylpiperidin-4-yl)methyl)piperidine-4-carboxamide]	–	> 50 µM	–
Cn1ccc(CNC(=O)C2CCN(C(=O)c3cc4ccccc4n3Cc3ccc(Cl)cc3)CC2)n1 [27e, 1-(1-(4-Chlorobenzyl)-1H-indole-2-carbonyl)-N-((1-methyl-1H-pyrazol-3-yl)methyl)piperidine-4-carboxamide]	–	> 100 µM	–
Cn1cnc(CNC(=O)C2CCN(C(=O)c3cc4ccccc4n3Cc3ccc(Cl)cc3)CC2)c1 [27f, 1-(1-(4-Chlorobenzyl)-1H-indole-2-carbonyl)-N-((1-methyl-1H-imidazol-4-yl)methyl)piperidine-4-carboxamide]	–	> 50 µM	–
O=C(NCCc1ccncc1)C1CCN(C(=O)c2cc3ccccc3n2Cc2ccc(Cl)cc2)CC1 [27g, 1-(1-(4-Chlorobenzyl)-1H-indole-2-carbonyl)-N-(2-(pyridin-4-yl)ethyl)piperidine-4-carboxamide]	66.1 ×10⁻⁶ cm/s	–	FMV Viability (% uninfected control) (Fort Morgan virus (FMV) [2]): 71.9 ± 1.9 % uninfected control; BBB-PAMPA (log Peff) [6]: -4.18 ± 0.06 cm/s; Reduction of viral titers compared with 3 (Fort Morgan virus (FMV) [4]): approximately ten-fold more than 3; Fold increase in potency in WEEV replicon assay (WEEV replicon): 10 fold
O=C(NCCCc1ccncc1)C1CCN(C(=O)c2cc3ccccc3n2Cc2ccc(Cl)cc2)CC1 [27j, 1-(1-(4-Chlorobenzyl)-1H-indole-2-carbonyl)-N-(3-(pyridin-4-yl)propyl)piperidine-4-carboxamide]	77.6 ×10⁻⁶ cm/s	–	Fold decrease in potency in WEEV replicon assay (WEEV replicon): 5 fold
CN(CCc1ccncc1)C(=O)C1CCN(C(=O)c2cc3ccccc3n2Cc2ccc(Cl)cc2)CC1 [27m, 1-(1-(4-Chlorobenzyl)-1H-indole-2-carbonyl)-N-methyl-N-(2-(pyridin-4-yl)ethyl)piperidine-4-carboxamide]	61.7 ×10⁻⁶ cm/s	–	Fold diminished potency in WEEV replicon assay (WEEV replicon): 3 fold
O=C(NCCn1ccnc1)C1CCN(C(=O)c2cc3ccccc3n2Cc2ccc(Cl)cc2)CC1 [27o, N-(2-(1H-Imidazol-1-yl)ethyl)-1-(1-(4-chlorobenzyl)-1H-indole-2-carbonyl)piperidine-4-carboxamide]	1.74 ×10⁻⁶ cm/s	–	–
COc1cccc(CCNC(=O)C2CCN(C(=O)c3cc4ccccc4n3Cc3ccc(Cl)cc3)CC2)c1 [27p, 1-(1-(4-Chlorobenzyl)-1H-indole-2-carbonyl)-N-(3-methoxyphenethyl)piperidine-4-carboxamide]	–	> 100 µM	–
CN(C)C(=O)C1CCN(C(=O)c2cc3ccccc3n2Cc2ccc(Cl)cc2)CC1 [27v, 1-(1-(4-Chlorobenzyl)-1H-indole-2-carbonyl)-N,N-dimethylpiperidine-4-carboxamide]	64.6 ×10⁻⁶ cm/s	> 100 µM	–
O=C(c1cc2ccccc2n1Cc1ccc(Cl)cc1)N1CCC(C(=O)N2CCOCC2)CC1 [27x, (1-(4-Chlorobenzyl)-1H-indol-2-yl)(4-(morpholine-4-carbonyl)piperidin-1-yl)methanone]	–	> 100 µM	–
CN(Cc1ccccc1)C(=O)C1CCN(C(=O)c2cc3ccccc3n2Cc2ccc([N+](=O)[O-])cc2)CC1 [28b, N-Benzyl-N-methyl-1-(1-(4-nitrobenzyl)-1H-indole-2-carbonyl)piperidine-4-carboxamide]	–	> 100 µM	–
CN(Cc1ccccc1)C(=O)C1CCN(C(=O)c2cc3ccccc3n2Cc2ccc(C#N)cc2)CC1 [28c, N-Benzyl-1-(1-(4-cyanobenzyl)-1H-indole-2-carbonyl)-N-methylpiperidine-4-carboxamide]	53.7 ×10⁻⁶ cm/s	> 100 µM	–
CC(=O)n1c(C(=O)N2CCC(C(=O)N(C)Cc3ccccc3)CC2)cc2ccccc21 [28e, 1-(1-Acetyl-1H-indole-2-carbonyl)-N-benzyl-N-methylpiperidine-4-carboxamide]	9.77 ×10⁻⁶ cm/s	> 50 µM	–

Molecule	Papp (in vitro [3])	CC50 (in vitro [5])	also measured
COCCn1c(C(=O)N2CCC(C(=O)N(C)Cc3ccccc3)CC2)cc2ccccc21 [28f, N-Benzyl-1-(1-(2-methoxyethyl)-1H-indole-2-carbonyl)-N-methylpiperidine-4-carboxamide]	40.7 ×10⁻⁶ cm/s	> 50 µM	–
O=C(NCCc1ccncc1)C1CCN(C(=O)c2cccn2Cc2ccc(Cl)cc2)CC1 [29a, 1-(1-(4-Chlorobenzyl)-1H-pyrrole-2-carbonyl)-N-(2-(pyridin-4-yl)ethyl)piperidine-4-carboxamide]	9.77 ×10⁻⁶ cm/s	> 100 µM	FMV Viability (% uninfected control) (Fort Morgan virus (FMV) [2]): 63.0 ± 5.9 % uninfected control
O=C(NCCc1ccncc1)C1CCN(C(=O)c2nccn2Cc2ccc(Cl)cc2)CC1 [29b, 1-(1-(4-Chlorobenzyl)-1H-imidazole-2-carbonyl)-N-(2-(pyridin-4-yl)ethyl)piperidine-4-carboxamide]	8.71 ×10⁻⁶ cm/s	> 50 µM	–
O=C(NCCc1ccncc1)C1CCN(C(=O)c2nc3ccccc3n2Cc2ccc(Cl)cc2)CC1 [29c, 1-(1-(4-Chlorobenzyl)-1H-benzo[d]imidazole-2-carbonyl)-N-(2-(pyridin-4-yl)ethyl)piperidine-4-carboxamide]	31.6 ×10⁻⁶ cm/s	–	Fold increase in half-life in mouse liver microsomes [7]: 20-35 fold
O=C(NCCc1ccncc1)C1CCN(C(=O)NCCc2ccc(Cl)cc2)CC1 [29d, N1-(4-Chlorophenethyl)-N4-(2-(pyridin-4-yl)ethyl)piperidine-1,4-dicarboxamide]	14.1 ×10⁻⁶ cm/s	> 100 µM	–
Cn1c(C(=O)N2CCC(C(=O)NCCc3ccncc3)CC2)cc2ccccc21 [29e, 1-(1-Methyl-1H-indole-2-carbonyl)-N-(2-(pyridin-4-yl)ethyl)piperidine-4-carboxamide]	–	> 50 µM	–
O=C(NCCc1ccncc1)C1CCN(C(=O)c2cc3ccccc3n2Cc2ccccc2)CC1 [29f, 1-(1-Benzyl-1H-indole-2-carbonyl)-N-(2-(pyridin-4-yl)ethyl)piperidine-4-carboxamide]	–	–	Fold increase in half-life in mouse liver microsomes [7]: 20-35 fold
O=C(NCCc1ccncc1)C1CCN(C(=O)c2cc3ccc(F)cc3n2Cc2ccc(Cl)cc2)CC1 [29h, 1-(1-(4-Chlorobenzyl)-6-fluoro-1H-indole-2-carbonyl)-N-(2-(pyridin-4-yl)ethyl)piperidine-4-carboxamide]	–	–	Reduction of viral titers compared with 3 (Fort Morgan virus (FMV) [4]): approximately ten-fold more than 3
O=C(NCCc1ccncc1)C1CCN(C(=O)c2cc3cc(F)ccc3n2Cc2ccc(Cl)cc2)CC1 [29i, 1-(1-(4-Chlorobenzyl)-5-fluoro-1H-indole-2-carbonyl)-N-(2-(pyridin-4-yl)ethyl)piperidine-4-carboxamide]	77.6 ×10⁻⁶ cm/s	–	–
O=C(NCCc1ccncc1)C1CCN(C(=O)c2cc3ccncc3n2Cc2ccc(Cl)cc2)CC1 [29j, 1-(1-(4-Chlorobenzyl)-1H-pyrrolo[2,3-c]pyridine-2-carbonyl)-N-(2-(pyridin-4-yl)ethyl)piperidine-4-carboxamide]	3.02 ×10⁻⁶ cm/s	–	–
O=C(NCCc1ccncc1)C1CCN(C(=O)c2cc(F)cn2Cc2ccc(Cl)cc2)CC1 [29k, 1-(1-(4-Chlorobenzyl)-4-fluoro-1H-pyrrole-2-carbonyl)-N-(2-(pyridin-4-yl)ethyl)piperidine-4-carboxamide]	12.6 ×10⁻⁶ cm/s	–	–
NC(=O)c1ncn([C@@H]2O[C@H](CO)[C@@H](O)[C@H]2O)n1 [Ribavirin]	–	–	WEEV Viability (% uninfected control) [8]: 35.3 ± 1.0 % uninfected control
C[C@@H](NC(=O)C1CCN(C(=O)c2cc3ccccc3n2Cc2ccc(Cl)cc2)CC1)c1ccccc1 [compound 3]	0.302 ×10⁻⁶ cm/s	> 100 µM	FMV Viability (% uninfected control) (Fort Morgan virus (FMV) [2]): 47.4 ± 8.0 % uninfected control; WEEV Titer [9]: 8.8 ± 1.0* x10^6 pfu/mL
O=C(NCc1ccncc1)C1CCN(C(=O)c2cc3ccccc3n2Cc2ccc(Cl)cc2)CC1 [compound 4]	69.2 ×10⁻⁶ cm/s	> 100 µM	–
O=C(NCc1cccnc1)C1CCN(C(=O)c2cc3ccccc3n2Cc2ccc(Cl)cc2)CC1 [compound 5]	–	–	Fold loss in activity in WEEV replicon assay (WEEV replicon): 2 fold
